Measured values reported in patent publication EP4722201A1, “3-PHENYLISOXAZOLINE-5-CARBOXAMIDE COMPOUND, AND PREPARATION METHOD THEREFOR, HERBICIDAL COMPOSITION THEREOF AND USE THEREOF” (Jiangsu Flag Chemical Industry Co., Ltd, priority 2023, dated 2024).

What was measured:
Assay in all cases: Indoor herbicide activity determination, Seed Treatment; pre-emergence (soil spray)
Format in all cases: in vivo
Lolium multiflorum = system: Lolium multiflorum
In short: (§1)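 Sow seeds into soil-filled 7 cm pots (sandy, pH 6.1, 1% organic matter) and cover them. Water from beneath, then incubate 24 h in a lit, temperature-controlled chamber. Spray the soil in a traveling tower, let it dry in shade, grow on 21 days, and weigh fresh biomass against controls.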

Leptochloa chinensis = system: Leptochloa chinensis
In short: as §1

Eclipta prostrata = details: read-out: Herbicidal activities (inhibition rate) Eclipta prostrata; for inhibition at 120 g/ha: 120 g a.i./ha; for inhibition at 60 g/ha: 60 g a.i./ha
In short: as §1

Alopecurus japonicus = system: Alopecurus japonicus
In short: as §1

Alopecurus myosuroides = system: Alopecurus myosuroides
In short: as §1

Digitaria sanguinalis = details: read-out: Herbicidal activities (inhibition rate) Digitaria sanguinalis; for inhibition at 120 g/ha: 120 g a.i./ha; for inhibition at 60 g/ha: 60 g a.i./ha
In short: as §1

Aegilops tauschii = details: read-out: Herbicidal activities (inhibition rate) Aegilops tauschii; for inhibition at 120 g/ha: 120 g a.i./ha; for inhibition at 60 g/ha: 60 g a.i./ha
In short: as §1

Cyperus iria = details: read-out: Herbicidal activities (inhibition rate) Cyperus iria; for inhibition at 120 g/ha: 120 g a.i./ha; for inhibition at 60 g/ha: 60 g a.i./ha
In short: as §1

Eleusine indica = system: Eleusine indica
In short: as §1

Structure (SMILES)	Herbicidal activities, Lolium multiflorum (inhibition rate class) (Lolium multiflorum; Dosage 240 g a.i./ha)	Herbicidal activities, Leptochloa chinensis (inhibition rate class) (Leptochloa chinensis; Dosage 240 g a.i./ha)	inhibition at 120 g/ha (Eclipta prostrata) [%]	Herbicidal activities, Alopecurus japonicus (inhibition rate class) (Alopecurus japonicus; Dosage 240 g a.i./ha)	Herbicidal activities, Alopecurus myosuroides (inhibition rate class) (Alopecurus myosuroides; Dosage 240 g a.i./ha)	inhibition at 120 g/ha (Digitaria sanguinalis) [%]	inhibition at 120 g/ha (Aegilops tauschii) [%]	inhibition at 120 g/ha (Cyperus iria) [%]	Herbicidal activities, Eleusine indica (inhibition rate class) (Eleusine indica; Dosage 240 g a.i./ha)	inhibition at 60 g/ha (Eclipta prostrata) [%]	inhibition at 60 g/ha (Digitaria sanguinalis) [%]	inhibition at 60 g/ha (Aegilops tauschii) [%]	inhibition at 60 g/ha (Cyperus iria) [%]	further results
C=CC1(C(=O)N[C@H]2CO[C@@H](C(=O)OC)C2)CC(c2cc(F)cc(C(F)(F)F)c2)=NO1 (mixture of isomers) [I-368]	A (A indicates that the inhibition rate was greater than or equal to 80% to 100%)	A (A indicates that the inhibition rate was greater than or equal to 80% to 100%)	40 to 60	A (A indicates that the inhibition rate was greater than or equal to 80% to 100%)	A (A indicates that the inhibition rate was greater than or equal to 80% to 100%)	60 to 80	80 to 100	60 to 80	A (A indicates that the inhibition rate was greater than or equal to 80% to 100%)					
C=CC1(C(=O)N[C@H]2CO[C@@H](C(=O)OC)C2)CC(c2cc(F)cc(OC(F)(F)F)c2)=NO1 (mixture of isomers) [I-369]	A (A indicates that the inhibition rate was greater than or equal to 80% to 100%)	A (A indicates that the inhibition rate was greater than or equal to 80% to 100%)	40 to 60	A (A indicates that the inhibition rate was greater than or equal to 80% to 100%)	A (A indicates that the inhibition rate was greater than or equal to 80% to 100%)	60 to 80	80 to 100	60 to 80	A (A indicates that the inhibition rate was greater than or equal to 80% to 100%)					
C=CC1(C(=O)N[C@H]2CO[C@@H](C(=O)OC)C2)CC(c2cc(F)cc(OC(F)F)c2)=NO1 (mixture of isomers) [I-370]	A (A indicates that the inhibition rate was greater than or equal to 80% to 100%)	A (A indicates that the inhibition rate was greater than or equal to 80% to 100%)	60 to 80	A (A indicates that the inhibition rate was greater than or equal to 80% to 100%)	A (A indicates that the inhibition rate was greater than or equal to 80% to 100%)	60 to 80	80 to 100	80 to 100	A (A indicates that the inhibition rate was greater than or equal to 80% to 100%)					
C=CC1(C(=O)N[C@H]2CO[C@@H](C(=O)OC)C2)CC(c2cc(Cl)cc(C(F)(F)F)c2)=NO1 (mixture of isomers) [I-371]	A (A indicates that the inhibition rate was greater than or equal to 80% to 100%)	A (A indicates that the inhibition rate was greater than or equal to 80% to 100%)	40 to 60	A (A indicates that the inhibition rate was greater than or equal to 80% to 100%)	A (A indicates that the inhibition rate was greater than or equal to 80% to 100%)	60 to 80	80 to 100	60 to 80	A (A indicates that the inhibition rate was greater than or equal to 80% to 100%)					
C=CC1(C(=O)N[C@H]2CO[C@@H](C(=O)OC)C2)CC(c2cc(Cl)cc(OC(F)(F)F)c2)=NO1 (mixture of isomers) [I-372]	A (A indicates that the inhibition rate was greater than or equal to 80% to 100%)	A (A indicates that the inhibition rate was greater than or equal to 80% to 100%)	80 to 100	A (A indicates that the inhibition rate was greater than or equal to 80% to 100%)	A (A indicates that the inhibition rate was greater than or equal to 80% to 100%)	80 to 100	80 to 100	80 to 100	A (A indicates that the inhibition rate was greater than or equal to 80% to 100%)					
C=CC1(C(=O)N[C@H]2CO[C@@H](C(=O)OC)C2)CC(c2cc(Cl)cc(OC(F)F)c2)=NO1 (mixture of isomers) [I-373]	A (A indicates that the inhibition rate was greater than or equal to 80% to 100%)	A (A indicates that the inhibition rate was greater than or equal to 80% to 100%)	80 to 100	A (A indicates that the inhibition rate was greater than or equal to 80% to 100%)	A (A indicates that the inhibition rate was greater than or equal to 80% to 100%)	80 to 100	60 to 80	60 to 80	B (B indicates that the inhibition rate was greater than or equal to 60% to less than 80%)					
C#CCOC(=O)[C@H]1C[C@@H](NC(=O)[C@@]2(C(F)(F)F)CC(c3cc(F)cc(OC(F)(F)F)c3)=NO2)C1 [I-255]										60 to 80	60 to 80	80 to 100	80 to 100	Herbicidal activities, Leptochloa chinensis (inhibition rate class) (Leptochloa chinensis; Dosage 120 g a.i./ha): A (A indicates that the inhibition rate was greater than or equal to 80% to 100%); Herbicidal activities, Alopecurus japonicus (inhibition rate class) (Alopecurus japonicus; Dosage 120 g a.i./ha): A (A indicates that the inhibition rate was greater than or equal to 80% to 100%); Herbicidal activities, Alopecurus myosuroides (inhibition rate class) (Alopecurus myosuroides; Dosage 120 g a.i./ha): A (A indicates that the inhibition rate was greater than or equal to 80% to 100%); Herbicidal activities, Eleusine indica (inhibition rate class) (Eleusine indica; Dosage 120 g a.i./ha): A (A indicates that the inhibition rate was greater than or equal to 80% to 100%)
C=C[C@]1(C(=O)N[C@H]2C=C[C@@H](C(=O)OCC)C2)CC(c2cc(F)cc(C(F)(F)F)c2)=NO1 [I-429]										60 to 80	60 to 80	60 to 80	60 to 80	Herbicidal activities, Lolium multiflorum (inhibition rate class) (Lolium multiflorum; Dosage 120 g a.i./ha): A (A indicates that the inhibition rate was greater than or equal to 80% to 100%); Herbicidal activities, Leptochloa chinensis (inhibition rate class) (Leptochloa chinensis; Dosage 120 g a.i./ha): A (A indicates that the inhibition rate was greater than or equal to 80% to 100%); Herbicidal activities, Alopecurus japonicus (inhibition rate class) (Alopecurus japonicus; Dosage 120 g a.i./ha): A (A indicates that the inhibition rate was greater than or equal to 80% to 100%); Herbicidal activities, Alopecurus myosuroides (inhibition rate class) (Alopecurus myosuroides; Dosage 120 g a.i./ha): A (A indicates that the inhibition rate was greater than or equal to 80% to 100%); Herbicidal activities, Eleusine indica (inhibition rate class) (Eleusine indica; Dosage 120 g a.i./ha): A (A indicates that the inhibition rate was greater than or equal to 80% to 100%)
C=C[C@]1(C(=O)N[C@H]2C=C[C@@H](C(=O)OC(C)C)C2)CC(c2cc(F)cc(OC(F)(F)F)c2)=NO1 [I-463]										60 to 80	60 to 80	60 to 80	60 to 80	Herbicidal activity (inhibition rate class), Lolium multiflorum (Lolium multiflorum; Dosage 120 g a.i./ha): A (A indicates that the inhibition rate was greater than or equal to 80% to 100%); Herbicidal activity (inhibition rate class), Leptochloa chinensis (Leptochloa chinensis; Dosage 120 g a.i./ha): A (A indicates that the inhibition rate was greater than or equal to 80% to 100%); Herbicidal activity (inhibition rate class), Alopecurus japonicus (Alopecurus japonicus; Dosage 120 g a.i./ha): A (A indicates that the inhibition rate was greater than or equal to 80% to 100%); Herbicidal activity (inhibition rate class), Alopecurus myosuroides (Alopecurus myosuroides; Dosage 120 g a.i./ha): A (A indicates that the inhibition rate was greater than or equal to 80% to 100%); Herbicidal activity (inhibition rate class), Eleusine indica (Eleusine indica; Dosage 120 g a.i./ha): A (A indicates that the inhibition rate was greater than or equal to 80% to 100%)
